The values below are quoted from earlier work in CN114831954A, “一种左氧氟沙星片” (priority 2022, dated 2022).

For data set [1] the following is noted: background statement.
The test system of data set [2] is Gram-positive and Gram-negative bacteria [革兰氏阳性菌和阴性菌]. The note with it: background statement.
The conditions of data set [3]: in vivo, po.

Turning to `CC1COc2c(N3CCN(C)CC3)c(F)cc3c(=O)c(C(=O)O)cn1c23` (stereo not shown) [氧氟沙星], the biological half-life in data set [1] is reported as about 6 h. The antibacterial effect entry in data set [2] (Gram-positive and Gram-negative bacteria) was “对革兰氏阳性菌和阴性菌均有光谱的效果”. Besides, the “concentration dependence of antibacterial effect” value in data set [2] was “具有明显的浓度依赖性”. Moreover, the gastrointestinal adverse reactions result in data set [3] is given as “有胃肠不良反应”.
